Measurements taken from patent US8399426B2, “Method for treating breast cancer using adenine nucleotide translocator 2 (ANT2) siRNA or ANT2 shRNA” (Bioinfra Inc., priority 2006, dated 2013).

What was measured:
[1] = test system: breast cancer cell line MCF7; assay: Sensitivity to doxorubicin, CCK8 assay, MCF7; assay type: cell-based; settings: MCF7 progenitor cells (CD44+/CD24−) vs mixed population
Experimental: The breast cancer cell line MCF7, which has a minor proportion of progenitor cells (CD44+/CD24−), was treated with various concentrations of doxorubicin, widely used for the treatment of breast cancer, after which apoptosis was quantitatively analyzed using a CCK8 assay.

[2] = test system: MDA-MB-231 cell line; assay: Sensitivity to doxorubicin, CCK8 assay, MDA-MB-231; assay type: cell-based, human; settings: MDA-MB-231, doxorubicin 10 μM to zero, 10 hrs, no ANT2 shRNA
Experimental: The MDA-MB-231 cell line which has a predominant proportion of progenitor cells (CD44+/CD24−) was treated with 10-fold serial dilutions of doxorubicin, a widely used anticancer agent starting from 10 μM to zero, followed by incubation (10 hrs). The assay was conducted in the same manner as in Example 6.

[3] = test system: DR4, DR5, DcR1 and DcR2; assay: Expression of TRAIL receptors by Western blots, MCF7; assay type: cell-based; settings: MCF7, pre-treatment with p53 inhibitor
Experimental: The breast cancer cell lines MCF7 and MDA-MB-231, which are different in sensitivity to TRAIL from each other, were analyzed for expression levels of the receptors DR4, DR5, DcR1, and DcR2, all binding to TRAIL, by Western blots.
Upon the introduction of ANT2 shRNA, expression patterns of TRAIL receptors were examined, and the results are given in FIG. 26B. […] In T47D and BT474 cell lines, which are known to have TRAIL resistance, the same effects as in MCF7 were observed. That is, the introduction of ANT2 shRNA increased the expression of DR4 and DR5, but decreased the expression of DcR1 and DcR2 (FIG. 26C).
In addition, an experiment was performed to reconfirm that the introduction of ANT2 shRNA induces the expression and activity of p53, thus up-regulating the TRAIL receptors DR4 and DR5.

[4] = test system: MCF7 cells; assay: Sensitivity to TRAIL, CCK8 assay, MCF7; assay type: cell-based
Experimental: (§1) As breast cancer cell lines in this experiment, MCF7 resistant to TRAIL, and MDA-MB-231 highly sensitive to TRAIL were employed. MCF7 and MDA-MB-231 were treated with TRAIL at various concentrations after which cell death was analyzed with a CCK8 reagent. The CCK8 assay is a cell viability assay. Specifically, 100 μL of a cell suspension was placed onto each well (1×10^4 cells/well). The cells were treated with 10-fold serial dilutions of TRAIL starting from 1 μg/mL to zero, followed by incubation for 12 hrs. After the addition of 10 μL of the CCK8 reagent, the cells were incubated for a proper time (4 hours) in a CO2 incubator and measured for absorbance at 450 nm to analyze cell death.
However, the introduction of ANT2 shRNA into MCF7 cells induced apoptosis (−25%). […] As for a negative control, it was PBS for TRAIL, and sc shRNA (scrambled shRNA) for ANT2 shRNA.
After being treated with TRAIL alone, ANT2 shRNA alone, and TRAIL and ANT2 shRNA in combination, MCF7 cells, resistant to TRAIL, were examined for apoptosis, and the results are shown in FIG. 24C.
Furthermore, treatment with the p53 inhibitor (pifithrin-alpha) suppressed the up-regulation of TRAIL-mediated apoptosis by ANT2 shRNA, which confirmed that the introduction of ANT2 shRNA induced the expression and activity of p53, leading to an increase in sensitivity to TRAIL. The cell death was quantified using a CCK8 assay, with the use of PBS as a negative control for the p53 inhibitor (FIG. 28).

[5] = test system: breast cancer cells (MDA-MB-231); assay: Direct apoptosis, PI and Annexin V staining, FACS; assay type: cell-based, human; settings: 48 hours from transfection
Experimental: To investigate whether apoptosis could induced directly by ANT2 siRNA, the present inventors performed staining with propidium iodide (PI) and Annexin V.
Particularly, the cells were transfected respectively with ANT2 siRNA and scrambled siRNA, followed by culture for 24-48 hours. The cells were washed with PBS, to which PI and Annexin V were added. After reaction at room temperature for 15 minutes, […] was measured by FACS.

[6] = test system: MCF7 tumor; assay: In vivo tumor growth of MCF7 transplanted into nude mice; RT-PCR of TRAIL receptors in tumors; set-up: species or system Balb/c nude mice; settings: TRAIL alone, 10 mg/kg intraperitoneally, three treatments over 45 days
Experimental: The breast cancer cell line MCF7 resistant to TRAIL was transplanted into immunedeficient Balb/c nude mice. When a tumor grew to a volume of 100 mm^3, they were treated with ANT2 shRNA and TRAIL. In this regard, TRAIL was intraperitoneally injected (10 mg/kg) while ANT2 shRNA was directly injected into the tumor (100 μg; supplemented 200 μl Lipofectamine™2000). At this time, Lipofectamine™2000 was used to deliver ANT2 shRNA into tumor cells. After three treatments over 45 days, the size of tumor was monitored. A same volume of PBS and sc shRNA was used as respective negative controls for TRAIL and […]. On 45th day, the animal models were subjected to euthanasia and the tumors were excised.

[7] = test system: breast cancer cell lines T47D and BT474; assay: Sensitivity to TRAIL, CCK8 assay, T47D and BT474; assay type: cell-based; settings: T47D and BT474, TRAIL alone
Source text: The same results as MCF7 were detected from the breast cancer cell lines T47D and BT474, both known to be resistant to TRAIL (FIG. 25A). For this, a CCK8 assay was employed to quantify the apoptosis.

[8] = test system: MDA-MB-231 cells; assay: Sensitivity to TRAIL, CCK8 assay, MDA-MB-231; assay type: cell-based, human; settings: MDA-MB-231, TRAIL at various concentrations, 12 hrs
Experimental: as §1

[9] = test system: breast cancer cell lines T47D and BT474; assay: Western blots of apoptosis-induced proteins (PARP, caspase-8/9/7, Bid, cytochrome C); assay type: cell-based; settings: TRAIL alone
Source text: The increased sensitivity to TRAIL was reconfirmed to be attributed to the knockdown of ANT2 by shRNA. […] The empty vector pcDNA was introduced as a negative control for pcDNA-ANT2. When ANT2 shRNA increased sensitivity to TRAIL to induce apoptosis, the concurrent events of intracellular proteins (cleavage of PARP protein, cleavage of caspase-8/9/7, and truncation of Bid proteins) were detected by Western blots.
Because mitochondria play an important role in the regulation of apoptosis, cytochrome C, which is released from mitochondria to cytoplasm, was quantitatively monitored upon the ANT2 shRNA-triggered, TRAIL-mediated apoptosis. The mitochondrial protein COX IV was used as a loading control to guarantee the use of mitochondrial proteins in the same amount. No changes in the pattern of apoptosis-induced proteins were observed when TRAIL was used alone. […] These changes of intracellular protein patterns confirmed that ANT2 shRNA enhanced TRAIL-mediated apoptosis.

COc1cccc2c1C(=O)c1c(O)c3c(c(O)c1C2=O)C[C@@](O)(C(=O)CO)C[C@@H]3O[C@H]1C[C@H](N)[C@H](O)[C@H](C)O1 [doxorubicin]
sensitivity to doxorubicin [1]: less sensitive
sensitivity to doxorubicin [2]: neither progenitor cells (CD44+/CD24−) nor the non-progenitor cells were sensitive

Cc1ccc(C(=O)Cn2c3c(sc2=N)CCCC3)cc1 [pifithrin-alpha, reference compound]
up-regulation of DR4 and DR5 by ANT2 shRNA [3]: suppressed
up-regulation of TRAIL-mediated apoptosis by ANT2 shRNA ([4]; MCF7, treatment with p53 inhibitor, CCK8): suppressed

ANT2 siRNA-2: ANT2 siRNA for comparison, SEQ ID NO: 14, 5′-CUGACAUCAUGUACACAGG-3′ (listed as RNA, chemistry not given here)
apoptosis, comparison among ANT2 siRNA, ANT2 siRNA-2 and ANT2 siRNA-3 [5]: consistent

ANT2 siRNA-3: ANT2 siRNA for comparison, SEQ ID NO: 15, 5′-GAUUGCUCGUGAUGAAGGA-3′ (listed as RNA, chemistry not given here)
apoptosis, comparison among ANT2 siRNA, ANT2 siRNA-2 and ANT2 siRNA-3 [5]: consistent

B1: TRAIL: TRAIL/apo2 ligand, a member of tumor necrosis factor, can selectively kill cancer cells (protein, UniProt P50591 1-281, looked up)
Tumor necrosis factor ligand …: MAMMEVQGGPSLGQTCVLIVIFTVLLQSLCVAVTYVYFTNELKQMQDKYSKSGIACFLKEDDSYWDPNDEESMNSPCWQVKWQLRQLVRKMILRTSEETISTVQEKQQNISPLVRERGPQRVAAHITGTRGRSNTLSSPNSKNEKALGRKINSWESSRSGHSFLSNLHLRNGELVIHEKGFYYIYSQTYFRFQEEIKENTKNDKQMVQYIYKYTSYPDPILLMKSARNSCWSKDAEYGLYSIYQGGIFELKENDRIFVSVTNEHLIDMDHEASFFGAFLVG
tumor growth [6]: no significant influences
response to TRAIL [7]: resistant
TRAIL-mediated apoptosis [8]: induced
apoptosis ([4]; MCF7, TRAIL 100 ng/mL): not induced to undergo apoptosis
TRAIL-mediated apoptosis ([4]; MCF7, TRAIL at various concentrations, 12 hrs): did not work
changes in the pattern of apoptosis-induced proteins [9]: No changes
